{"source": "patent US4118482A", "about": "(priority 1977, dated 1978)", "key": {"[1]": {"test_system": "advanced Ridgeway osteogenic sarcoma", "conditions": "cited from earlier work"}, "ADVANCED P388 LEUKEMIA": {"test_system": "ADVANCED P388 LEUKEMIA", "test": "Advanced P388 leukemia in mice, treatment Q4D x 3 at days 5, 9, 13", "type": "in vivo", "conditions": "0.15 Mg/Kg/Inj., Q4D x 3 days 5, 9, 13, advanced P388", "text": "(§1) The National Cancer Institute conducted a screening test on samples of both Azetomicin I (3' prolyl, 3' azet) and Azetomicin II (3', 3' azet) as well as on Dactinomycin (3', 3' prolyl) that is also known as Actinomycin D or C1. The Azetomicin and Dactinomycin molecules are identical, with the exception of the 3' amino acid position on the peptides, wherein the 3' positions, in the case of Dactinomycin are both prolyl; in the case of the Azetomicin I are prolyl and azetidine-2-carboxyl; and in the cae of Azetomicin II are both azetidine-2-carboxyl.\nADVANCED P388 LEUKEMIA : Q4D × 3 AT DAYS 5, 9, 13 TREATMENT"}, "P388 leukemia": {"test_system": "P388 leukemia", "test": "P388 leukemia in mice, treatment QD at days 1-9 (National Cancer Institute screen)", "type": "in vivo", "conditions": "QD days 1-9, P388 mice; for SURVIAL TIME MEDIAN: controls 10 days", "text": "as §1\nP 388 LEUKEMIA : QD AT DAYS 1-9 TREATMENT"}, "[2]": {"conditions": "schedule day 12, data of Southern Research Institute"}}, "note": "Read-outs that look alike come from different tables or passages of the source. Numbered stars: 1 amine (or outer) side, 2 acyl side, 3 side chain; on linkers, the order of the positions; unused ones are H or OH. Bridge positions count the residues as written; N and C are the ends. Square brackets hold non-standard residues; d marks the D form. Peptide text beside a SMILES is read from it. I, II: the chains in the order shown. Actinocin(9to1) = Cc1c2oc3c(C)ccc(C(=O)[*:1])c3nc-2c(C(=O)[*:2])c(N)c1=O; NMeV = CN[C@H](C(=O)O)C(C)C; Sar = CNCC(=O)O"}
{"compound": "CN(Cc1cnc2nc(N)nc(N)c2n1)c1ccc(C(=O)N[C@@H](CCC(=O)O)C(=O)O)cc1", "note": "[METHOTREXATE]", "values": [{"measurement": "\"CURES\" (Number/Total)", "setting": "[1]; schedule days 12,16,20,24", "result": "0/10"}, {"measurement": "REGRESSION 50+%-PARTIAL (Number/Total)", "setting": "[1]; schedule days 12,16,20,24", "result": "0/10"}, {"measurement": "REGRESSION COMPLETE (Number/Total)", "setting": "[1]; schedule days 12,16,20,24", "result": "0/10"}]}
{"compound": "CC[C@]1(O)C[C@H]2CN(CCc3c([nH]c4ccccc34)[C@@](C(=O)OC)(c3cc4c(cc3OC)N(C=O)[C@H]3[C@@](O)(C(=O)OC)[C@H](OC(C)=O)[C@]5(CC)C=CCN6CC[C@]43[C@@H]65)C2)C1", "note": "[VINCRISTINE]", "values": [{"measurement": "\"CURES\" (Number/Total)", "setting": "[1]; schedule days 12,16,20", "result": "0/10"}, {"measurement": "REGRESSION 50+%-PARTIAL (Number/Total)", "setting": "[1]; schedule days 12,16,20", "result": "10/10"}, {"measurement": "REGRESSION COMPLETE (Number/Total)", "setting": "[1]; schedule days 12,16,20", "result": "8/10"}]}
{"compound": "O=P1(N(CCCl)CCCl)NCCCO1", "note": "(stereo not drawn) [CYCLOPHOSPHAMIDE]", "values": [{"measurement": "\"CURES\" (Number/Total)", "setting": "[1]; [2]", "result": "3/8"}, {"measurement": "REGRESSION 50+%-PARTIAL (Number/Total)", "setting": "[1]; [2]", "result": "8/8"}, {"measurement": "[…] (Number/Total)", "setting": "[1]; [2]", "result": "8/8"}]}
{"compound": "Cc1c2oc3c(C)ccc(C(=O)N[C@@H]4C(=O)N[C@H](C(C)C)C(=O)N5CCC[C@H]5C(=O)N(C)CC(=O)N(C)[C@@H](C(C)C)C(=O)O[C@@H]4C)c3nc-2c(C(=O)N[C@@H]2C(=O)N[C@H](C(C)C)C(=O)N3CCC[C@H]3C(=O)N(C)CC(=O)N(C)[C@@H](C(C)C)C(=O)O[C@@H]2C)c(N)c1=O", "note": "[DACTINOMYCIN, Dactinomycin] (I: T[dV]P[Sar][NMeV] / II: T[dV]P[Sar][NMeV]; ester I:1-I:C, II:1-II:C; linker I:N-II:N via Actinocin(9to1))", "values": [{"measurement": "5 ILS* (increased life span)", "setting": "ADVANCED P388 LEUKEMIA", "result": 95, "unit": "%"}, {"measurement": "60 DAY \"CURES\"", "setting": "ADVANCED P388 LEUKEMIA", "result": 0}, {"measurement": "SURVIAL TIME MEDIAN", "setting": "ADVANCED P388 LEUKEMIA; controls 10 days", "result": 19.5, "unit": "days"}, {"measurement": "5 ILS* (increased life span)", "setting": "P388 leukemia; 0.05 Mg/Kg/Inj.", "result": 180, "unit": "%"}, {"measurement": "60 DAY \"CURES\"", "setting": "P388 leukemia; 0.05 Mg/Kg/Inj.", "result": 0, "unit": "%"}, {"measurement": "SURVIAL TIME MEDIAN", "setting": "P388 leukemia; 0.05 Mg/Kg/Inj.", "result": 28, "unit": "days"}, {"measurement": "5 ILS* (increased life span)", "setting": "P388 leukemia; 0.1 Mg/Kg/Inj.", "result": 115, "unit": "%"}, {"measurement": "60 DAY \"CURES\"", "setting": "P388 leukemia; 0.1 Mg/Kg/Inj.", "result": 12, "unit": "%"}, {"measurement": "SURVIAL TIME MEDIAN", "setting": "P388 leukemia; 0.1 Mg/Kg/Inj.", "result": 21.5, "unit": "days"}]}
{"compound": "O=c1[nH]cc(F)c(=O)[nH]1", "note": "[FLUOROURACIL]", "values": [{"measurement": "\"CURES\" (Number/Total)", "setting": "[1]; schedule days 12,16,20,24", "result": "0/10"}, {"measurement": "REGRESSION 50+%-PARTIAL (Number/Total)", "setting": "[1]; schedule days 12,16,20,24", "result": "8/10"}, {"measurement": "REGRESSION COMPLETE (Number/Total)", "setting": "[1]; schedule days 12,16,20,24", "result": "5/10"}]}
{"compound": "MITHRAMYCIN", "values": [{"measurement": "\"CURES\" (Number/Total)", "setting": "[1]; [2]", "result": "0/7"}, {"measurement": "REGRESSION 50+%-PARTIAL (Number/Total)", "setting": "[1]; [2]", "result": "0/7"}, {"measurement": "REGRESSION COMPLETE (Number/Total)", "setting": "[1]; [2]", "result": "0/7"}]}
{"compound": "O=C(O)CCCc1ccc(N(CCCl)CCCl)cc1", "note": "[CHLORAMBUCIL]", "values": [{"measurement": "\"CURES\" (Number/Total)", "setting": "[1]; [2]", "result": "0/10"}, {"measurement": "REGRESSION 50+%-PARTIAL (Number/Total)", "setting": "[1]; [2]", "result": "0/10"}, {"measurement": "REGRESSION COMPLETE (Number/Total)", "setting": "[1]; [2]", "result": "0/10"}]}
{"compound": "Nc1ncn([C@@H]2O[C@H](CO)[C@@H](O)[C@H]2O)c(=O)n1", "note": "[AZACYTIDINE]", "values": [{"measurement": "\"CURES\" (Number/Total)", "setting": "[1]; schedule days 12,16,20,24", "result": "0/7"}, {"measurement": "REGRESSION 50+%-PARTIAL (Number/Total)", "setting": "[1]; schedule days 12,16,20,24", "result": "0/7"}, {"measurement": "REGRESSION COMPLETE (Number/Total)", "setting": "[1]; schedule days 12,16,20,24", "result": "0/7"}]}
{"compound": "COc1cccc2c1C(=O)c1c(O)c3c(c(O)c1C2=O)C[C@@](O)(C(=O)CO)C[C@@H]3O[C@H]1C[C@H](N)[C@H](O)[C@H](C)O1", "note": "[ADRIAMYCIN]", "values": [{"measurement": "\"CURES\" (Number/Total)", "setting": "[1]; [2]", "result": "0/8"}, {"measurement": "REGRESSION 50+%-PARTIAL (Number/Total)", "setting": "[1]; [2]", "result": "7/8"}, {"measurement": "REGRESSION COMPLETE (Number/Total)", "setting": "[1]; [2]", "result": "7/8"}]}
{"compound": "O=NN(CCCl)C(=O)NCCCl", "note": "[BCNU]", "values": [{"measurement": "\"CURES\" (Number/Total)", "setting": "[1]; [2]", "result": "0/8"}, {"measurement": "REGRESSION 50+%-PARTIAL (Number/Total)", "setting": "[1]; [2]", "result": "0/8"}, {"measurement": "REGRESSION COMPLETE (Number/Total)", "setting": "[1]; [2]", "result": "0/8"}]}
{"compound": "COc1cccc2c1C(=O)c1c(O)c3c(c(O)c1C2=O)C[C@@](O)(C(C)=O)C[C@@H]3O[C@H]1C[C@H](N)[C@H](O)[C@H](C)O1", "note": "[DAUNOMYCIN]", "values": [{"measurement": "\"CURES\" (Number/Total)", "setting": "[1]; schedule days 12-17", "result": "0/12"}, {"measurement": "REGRESSION 50+%-PARTIAL (Number/Total)", "setting": "[1]; schedule days 12-17", "result": "9/12"}, {"measurement": "REGRESSION COMPLETE (Number/Total)", "setting": "[1]; schedule days 12-17", "result": "3/12"}]}
